Where two headings read alike, the source gives them in different places.
Legend:
[1] = target: T1, Taf3-PHD (residues 857–924) (Mus musculus, UniProt Q5HZG4); assay: NMR titration line shape analysis (TITAN), wild-type Taf3-PHD; type: binding
T1 construct: PHD finger of Taf3 (residues 857–924) in NMR buffer; GST (N, cleaved yes); made in house; host or cells: E. coli BL21(DE3), M9 minimal medium (13C/15N)
T1 sequence (Q5HZG4 857-924): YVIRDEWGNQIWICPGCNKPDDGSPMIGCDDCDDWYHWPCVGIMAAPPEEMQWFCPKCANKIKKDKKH
Description: The ^13C- and ^15N-labelled Taf3-PHD NMR samples were purified as described above, with minor differences. A single colony of freshly transformed BL21(DE3) E. coli was grown in a synthetic M9 minimal medium (6.0 g/l Na2HPO4·2H2O, 3.0 g/l KH2PO4, 0.5 g/l NaCl, 25 mg/l MgSO4, 290 μg/l CaCl2, 1 μg/l FeSO4·7H2O, 270 μg/l ZnCl2, and 5 mg/l thiamine) containing 2.0 g/l ^13C-glucose as the only carbon source and 0.5 g/l ^15NH4Cl as the sole nitrogen source. Protein expression, lysis, and loading to Glutathione Sepharose™ column were performed as described above. The GST-tag was removed through on-column thrombin digestion by loading excess thrombin (SERVA) in wash buffer followed by overnight digestion at 4°C. The cleaved PHD moiety with a […] N-terminal extension (Gly–Ser–His–Met–Ala–Met–Ala) remaining from the thrombin cleavage site was collected from the flow-through and further purified in a Mono Q™ 10/100 GL as before and subsequently loaded to a Superdex-75 HiLoad 16/600 gel filtration column in NMR buffer (20 mM KPi, pH 7.0, 150 mM KCl, 10 μM ZnCl2) (Supplementary Fig. S1).
All data were recorded at 298 K on a Bruker Avance III HD 900 MHz spectrometer equipped with a cryoprobe, unless noted otherwise. Sample for assignment verification contained 0.3 mM ^13C- and ^15N-labelled PHD finger of Taf3 (residues 857–924) in NMR buffer (20 mM KPi, pH 7.0, 150 mM KCl, 10 μM ZnCl2, 0.01% NaN3, 10% D2O) in a 5-mm NMR tube. Samples for peptide interaction studies contained 0.19 mM ^13C- and ^15N-labelled PHD in NMR buffer in 3-mm NMR tubes. Lyophilized peptides were dissolved in NMR buffer including 1 mM sodium 3-(trimethylsilyl)tetradeuteriopropanionate (TSP) into 20 mM stock solutions. Upon dilution to 1 mM, all peptide solutions were at pH 7.0 in NMR buffer. Peptide concentrations were determined by comparing the integral of the Thr methyl signal (from T3, T6, and T11, total nine protons) to that of TSP using a quantitative 1D experiment (recycle delay 60 s) recorded at a Bruker Avance III 600 MHz spectrometer. Saturated complexes with H3K4me1/H3K4me2/H3K4me3 peptides with and without H3Q5ser were made by adding peptide to a 0.7 mM final concentration (3.6 equiv.). […] Additional samples were prepared using 30%, 50%, 80%, and 160% equiv. of peptide. All spectra were recorded and processed using Bruker Topspin and analysed using NMR-FAM Sparky and Poky.
For the H3K4me2 complexes, the resonance of G879 was excluded due to overlap and that of K875 was included. Spectra were processed using NMRPipe using exponential line broadening of 10/15 Hz in the direct/indirect dimension of the free induction decay before Fourier transform. Data were fit against a 1:1 binding model that also optimizes the ligand concentration to compensate for concentration errors. Fitting assumed an HSQC experiment using 1.2 ms for the first zz-filter delays and an additional 0.6 ms evolution at the start and end of t1 that accommodated the echo/anti-echo gradient. The average koff value and standard error from a bootstrap analysis based on 100 replicas are reported. The 95% confidence limits were estimated using a grid search fixing koff allowing for an ∼3% increase in the final residuals as based on the F-statistic given the degrees of freedom. For each koff value, the KD for the H3K4me3 peptide was restrained to fall within 100 and 400 nM to enforce compatibility to previous reported affinity to avoid unrealistically high fitted KD values at higher koff values. Of note, the quality of the fit at the confidence limit edges is visibly worse than the best fit, particularly for the high koff side. For the H3K4me3Q5ser peptide, no restraint on KD was necessary. For the H3K4me2 peptides, the KD was restrained to 5 μM maximum. Without these upper bounds for KD, slightly wider confidence limits for koff are found.

TAF3-PHD = conditions: read-out: expected dissociation constant (KD); cited from earlier work
Description: An important link between H3K4me3 and pol II is formed by the basal transcription factor TFIID [[32], [35–37]]. TFIID is able to engage with active promoters by DNA contacts as well as by two histone-binding domains: the double bromodomains of TAF1 engaging acylated histones and the TAF3-PHD finger binding H3K4me3 [[32], [35–37]]. […] Binding of ... || All data were recorded at 298 K on a Bruker Avance III HD 900 MHz spectrometer equipped with a cryoprobe, unless noted otherwise. Sample for assignment verification contained 0.3 mM ^13C- and ^15N-labelled PHD finger of Taf3 (residues 857–924) in NMR buffer (20 mM KPi, pH 7.0, 150 mM KCl, 10 μM ZnCl2, 0.01% NaN3, 10% D2O) in a 5-mm NMR tube. Samples for peptide interaction studies contained 0.19 mM ^13C- and ^15N-labelled PHD in NMR buffer in 3-mm NMR tubes. Lyophilized peptides were dissolved in NMR buffer including 1 mM sodium 3-(trimethylsilyl)tetradeuteriopropanionate (TSP) into 20 mM stoc ... || Overall, we propose that serotonin recognition is governed by edge–face CH–π interactions with either aromatic residues or prolines. Consistent with our proposal, CHD1 contains aromatic residues at positions Y295 and Y406, either of which could orient to engage with H3Q5ser explaining the preference of CHD1 for serotonin (Supplementary Fig. S15C). […]

[2] = target: 13C- and 15N-labelled Taf3-PHD finger (residues 857-924), GST removed by thrombin (Mus musculus) (UniProt Q5HZG4); assay: NMR titration; 0.19 mM 13C,15N-labelled Taf3-PHD, peptide added (30% to 3.6 equiv.); 298 K; 20 mM KPi pH 7.0, 150 mM KCl, 10 μM ZnCl2; koff from TITAN line-shape fits (0%, 50%, 150% peptide), 1:1 model
BPTF = assay: Histone peptide pull-down qMS, HeLa nuclear extract; type: binding, HeLa cells; conditions: biotinylated H3 (1–13) peptides, FDR 0.1
Description: (§1) Nuclear extracts of HeLa cells were prepared using a modified version of the Dignam procedure. Cytosolic and nuclear separation was validated by immunoblot using the following antibodies: for TBP the 20C7 in house mouse monoclonal and for Tubulin the DM1A monoclonal from Calbiochem (CP06) (Supplementary Fig. S5A). Biotinylated H3 (1–13) peptides immobilized on Dynabeads™ M-280 Streptavidin (Invitrogen) were incubated on a rotating wheel with 1 mg of HeLa nuclear extract overnight at 4°C in binding buffer [20 mM HEPES–KOH, pH 7.9, 300 mM NaCl, 20% glycerol, 2 mM MgCl2, 0.2 mM ethylenediaminetetraacetic acid, 0.1% NP-40, 0.5 mM DTT, and 1× cOmplete™ Protease Inhibitor Cocktail (Roche)]. The beads were then washed two times with binding buffer containing 0.5% NP-40, two times with phosphate buffered saline (PBS) containing 0.5% NP-40, and two times with plain PBS. On-bead digestion of bound proteins was performed overnight at 22°C with 0.1 μg/ml of trypsin in elution buffer (100 mM Tris–HCl, pH 7.5, 2 M urea, 10 mM DTT). […] A third of the final elution was analysed as described in [44, 45] with minor changes. For nanoflow-HPLC–MS/MS samples were analysed on an Orbitrap Fusion Lumos mass spectrometer coupled to an Easy nano-LC 1200 HPLC (Thermo Fisher Scientific). […]

TFIID = assay: as above; type: binding, HeLa cells; conditions: biotinylated H3 (1–13) peptides, overnight at 4°C, 300 mM NaCl, pH 7.9, qMS, FDR 0.1
Description: as §1

[3] = target: Taf3-PHD P881E–W894F used for NMR titrations (Mus musculus) (UniProt Q5HZG4); assay: NMR titration; 0.19 mM 13C,15N-labelled Taf3-PHD, peptide added (30% to 3.6 equiv.); 298 K; 20 mM KPi pH 7.0, 150 mM KCl, 10 μM ZnCl2; koff from TITAN line-shape fits (0%, 50%, 150% peptide), 1:1 model
[4] = target: T2, Taf3-PHD (Mus musculus Taf3 residues 857-924), 13C- and 15N-labelled, GST removed (Mus musculus, UniProt Q5HZG4 857-924, 13C- and 15N-labelled); assay: solution NMR structure; 0.88 mM 13C,15N Taf3-PHD with 0.88 mM H3K4me3Q5ser peptide; 20 mM KPi pH 7.0, 4 mM KCl, 10 uM ZnCl2; NOESY at 293 K; NOE distance restraints imposed with HADDOCK on the structure PDB 2K17; conditions: both partners purified
T2 construct: Taf3 PHD finger, Mus musculus, residues 857-924; numbering of mouse Taf3 isoform 1, UniProt Q5HZG4; also called Taf3-PHD finger; PHD domain; source: E. coli BL21(DE3) in M9 minimal medium, purified (Glutathione Sepharose, on-column thrombin, Mono Q, Superdex-75); not shown: GST, N-terminal, cleaved
T2 sequence: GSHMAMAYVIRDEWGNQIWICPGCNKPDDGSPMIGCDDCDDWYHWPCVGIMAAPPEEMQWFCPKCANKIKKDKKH

C[C@H](N)C(=O)N[C@@H](CCCNC(=N)N)C(=O)N[C@H](C(=O)N[C@@H](CCCCN(C)C)C(=O)N[C@@H](CCC(N)=O)C(=O)N[C@H](C(=O)N[C@@H](C)C(=O)N[C@@H](CCCNC(=N)N)C(=O)N[C@@H](CCCCN)C(=O)N[C@@H](CO)C(=O)N[C@H](C(=O)NCC(N)=O)[C@@H](C)O)[C@@H](C)O)[C@@H](C)O [H3K4me2]
koff ([1]; NMR line shape fit (TITAN), 298 K, 20 mM KPi, pH 7.0, 150 mM KCl, 1:1 model, average ± standard error from bootstrap, 100 replicas, read-out: koff): 207 ± 10 s⁻¹
koff ([1]; NMR line shape fit (TITAN), 298 K, pH 7.0, grid search, read-out: koff 95% confidence limits): 160 to 250 s⁻¹
Kd (TAF3-PHD): 1700 nM

H3K4me2Q5ser histone H3 tail peptide (non-biotinylated)
koff [2]: 71 s⁻¹

H-ARTKQ(ser)TARKSTG-NH2 [H3Q5ser, H3 tail peptide, K4 unmethylated, serotonylated glutamine 5]
BPTF preference for H3Q5ser peptides (BPTF): enhanced binding to H3Q5ser compared to the unmodified H3 peptide

C[C@H](N)C(=O)N[C@@H](CCCNC(=N)N)C(=O)N[C@H](C(=O)N[C@@H](CCCCN(C)C)C(=O)N[C@@H](CCC(=O)NCCc1c[nH]c2ccc(O)cc12)C(=O)N[C@H](C(=O)N[C@@H](C)C(=O)N[C@@H](CCCNC(=N)N)C(=O)N[C@@H](CCCCN)C(=O)N[C@@H](CO)C(=O)N[C@H](C(=O)NCC(N)=O)[C@@H](C)O)[C@@H](C)O)[C@@H](C)O [H3K4me2Q5ser]
koff ([1]; pH 7): 71 ± 2 s⁻¹
koff ([1]; pH 7, read-out: koff 95% confidence limits): 56 to 90 s⁻¹
TFIID preference for H3Q5ser peptides (TFIID): TFIID enrichment was most pronounced

H3K4me3Q5ser histone H3 tail peptide (non-biotinylated)
koff [2]: 16.8 s⁻¹
koff [3]: 24.2 s⁻¹

H-ARTK(Me)QTARKSTG-NH2 [H3K4me1, H3 tail peptide monomethylated at lysine 4]
Kd (TAF3-PHD): > 200000 nM

H3K4me2 histone H3 tail peptide (non-biotinylated)
koff [2]: 207 s⁻¹

H3K4me3 histone H3 tail peptide (non-biotinylated)
koff [2]: 48.8 s⁻¹
koff [3]: 29.6 s⁻¹

B1: H3K4me3Q5ser peptide, non-biotinylated: H-ARTK(Me3)Q(ser)TARKSTG-NH2 (peptide)
peptide: H-ARTK(Me3)Q(serotonyl)TARKSTG-NH2
notes: histone H3 N-terminal tail, residues 1-12 of H3K4me3Q5ser; also called H3K4me3Q5ser ligand; H3 peptide; source: synthetic peptide
binding result [4]: binds
